According to patent publication US20070065472A1, “Benzyl-1,3-thiazolidine-2,4-dione compounds for stimulating or inducing the growth and/or for reducing the loss of keratin fibers” (L'OREAL, priority 2005, published 2007):

SMILES: O=C1NC(=O)C(Cc2ccccc2Oc2ccccc2)S1 (stereo not shown) [Example 1, 5-(2-phenoxybenzyl)-1,3-thiazolidine-2,4-dione]
- melting point: 84 to 85 °C
